Read-outs that look alike come from different tables or passages of the source. Positions of bridges follow the written chain, without caps; N, C: chain ends. Non-standard residues stand in square brackets, D forms with d. Residues, ends and D or L forms follow the SMILES beside them. *: point of attachment. X1 = NCc1ccc(CC(=O)*)cc1; PhAc = O=C(Cc1ccccc1)*; Aib = CC(C)(N)C(=O)O
Tests used:
human IR-A (holoIR-A) = target: T1, human IR-A (holoIR-A) (Homo sapiens, UniProt P06213); test: holoIR-A competitive radioligand binding assay (scintillation proximity assay); settings: for Ki: primary peptide set, mean of 3 runs, read-out: IRA Binding Ki Mean; for weaker affinity for hIR-A than BHI: relative to biosynthetic human insulin
T1 construct: expressed in transfected cells; host or cells: HEK293 (ATCC #CRL-1573), stably transfected; membrane preparation
How it was run: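 Membranes from HEK293 cells stably expressing C9-tagged human IR-A were used in a WGA-bead SPA competition assay in 50 mM Tris-HCl pH 7.5, 150 mM NaCl, 0.1% fatty-acid-free BSA. Ten-point 3-fold dilutions were incubated 10 h at room temperature before scintillation counting. Percent specific inhibition was calculated after nonspecific-binding correction, from three independent runs.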

[1] = target: T2, human holoIR-A over-expressed in HEK293 cells (Homo sapiens, UniProt P06213); test: holoIR-A auto-phosphorylation assay (ELISA); assay type: cell-based
T2 construct: expressed in transfected cells; host or cells: HEK293, stably transfected
Procedure: Phosphorylation was quantified using an ELISA technique. Ninety-six well, flat-bottom microplates (Greiner Bio-One) were pre-coated with 2 µg mL^−1 anti-C9 monoclonal antibody (Rho 1D4; University of British Columbia)[27] in 20 mM sodium carbonate, pH 9.6, at 4 °C for overnight prior to the assay. On the assay day, plates were washed 3× with 0.1% Tween in 50 mM Tris Buffer Saline, pH 7.5 (TBST), and then blocked for greater than 1 h at room temperature (RT) with 1% BSA (Sigma) in TBST.
Stably transfected HEK293 cells over-expressing human holoIR-A containing a C-terminal C9 epitope tag ([…]), were plated at 6 × 10^4 cells per well serum-starved using 0.1% BSA in DMEM (Gibco) for overnight at standard tissue culture condition. […] After a 15-min incubation in lysis buffer at 4 °C, the lysate was transferred to anti-C9 antibody coated capture plate (Rho 1D4; University of British Columbia)[27]. […] After a 1 h incubation at room temperature, the secondary antibody was removed by washing 3× with TBST. Signal detection occurred with the addition of TMB, an HRP substrate (Pierce). After 5–10 min, the reaction was stopped by adding an equal volume of 2 M H2SO4, and the absorbance readings at 450 nm (A450) were recorded using a Envision plate reader (PerkinElmer). Samples were tested in three independent assay runs on three different days.
Percent specific response (y-axis) was plotted versus the log concentration of compound (x-axis) using Prism Version 9.3.1 (GraphPad Software). Individual measurements are provided as Source Data.

[2] = target: T2, human holoIR-A over-expressed in HEK293 cells; test: Inhibition of hIR phosphorylation by peptides, co-incubated with BHI at its EC50 (ELISA); assay type: cell-based
How it was run: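 Serum-starved HEK293 cells stably over-expressing C9-tagged human holoIR-A were treated, lysed, and receptor captured on anti-C9-coated plates. Phosphorylation was detected by HRP/TMB ELISA at A450. Percent specific response was plotted against log compound concentration, with three independent runs on different days.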

[3] = system: [holoIR-A]-expressing IM-9 human lymphoblast cells; test: holoIR-A accelerated dissociation assay of pre-bound 125I-insulin; assay type: binding; settings: IM-9 cells, 1:40 dilution, 16 °C, 30 min; n = 3
Procedure: Ice-cold 15-25 pM ^125I-insulin solution was added to IM-9 cells and incubated at 4 °C for 2.5 h for pre-bound experiments. […] Following receptor and ^125I-insulin pre-bound, the mix was quickly centrifugated and supernatant was removed. The bound ^125I-insulin and IM-9 cells were then resuspended with 16 °C pre-equilibrated HBB, pH 7.6. The ^125I-ligand/IM-9 cell mixture was aliquoted to cold compounds at 1:40 ratio, respectively. The reactions were incubated at 16 °C for 30 min to allow dissociation of prebound ^125I-insulin and then harvested by centrifugation and aspiration of the supernatant. The radioactivity of cell pellets was determined by gamma counter (Perkin Elmer). Samples were tested in three independent assay runs on three different days. Individual measurements are provided as Source Data.

[4] = Fig. 1b, HEK293 hIR-A cells, 1 h 37 °C, ELISA, errors given as SEM, n = 3 independent replicates, read-out: Auto-phosphorylation constant EC50
[5] = primary peptide set, mean of 3 runs, read-out: hIRA Phosph EC50 Mean

T2 sequence (P06213 28-1370 isoform P06213-2 limits assumed): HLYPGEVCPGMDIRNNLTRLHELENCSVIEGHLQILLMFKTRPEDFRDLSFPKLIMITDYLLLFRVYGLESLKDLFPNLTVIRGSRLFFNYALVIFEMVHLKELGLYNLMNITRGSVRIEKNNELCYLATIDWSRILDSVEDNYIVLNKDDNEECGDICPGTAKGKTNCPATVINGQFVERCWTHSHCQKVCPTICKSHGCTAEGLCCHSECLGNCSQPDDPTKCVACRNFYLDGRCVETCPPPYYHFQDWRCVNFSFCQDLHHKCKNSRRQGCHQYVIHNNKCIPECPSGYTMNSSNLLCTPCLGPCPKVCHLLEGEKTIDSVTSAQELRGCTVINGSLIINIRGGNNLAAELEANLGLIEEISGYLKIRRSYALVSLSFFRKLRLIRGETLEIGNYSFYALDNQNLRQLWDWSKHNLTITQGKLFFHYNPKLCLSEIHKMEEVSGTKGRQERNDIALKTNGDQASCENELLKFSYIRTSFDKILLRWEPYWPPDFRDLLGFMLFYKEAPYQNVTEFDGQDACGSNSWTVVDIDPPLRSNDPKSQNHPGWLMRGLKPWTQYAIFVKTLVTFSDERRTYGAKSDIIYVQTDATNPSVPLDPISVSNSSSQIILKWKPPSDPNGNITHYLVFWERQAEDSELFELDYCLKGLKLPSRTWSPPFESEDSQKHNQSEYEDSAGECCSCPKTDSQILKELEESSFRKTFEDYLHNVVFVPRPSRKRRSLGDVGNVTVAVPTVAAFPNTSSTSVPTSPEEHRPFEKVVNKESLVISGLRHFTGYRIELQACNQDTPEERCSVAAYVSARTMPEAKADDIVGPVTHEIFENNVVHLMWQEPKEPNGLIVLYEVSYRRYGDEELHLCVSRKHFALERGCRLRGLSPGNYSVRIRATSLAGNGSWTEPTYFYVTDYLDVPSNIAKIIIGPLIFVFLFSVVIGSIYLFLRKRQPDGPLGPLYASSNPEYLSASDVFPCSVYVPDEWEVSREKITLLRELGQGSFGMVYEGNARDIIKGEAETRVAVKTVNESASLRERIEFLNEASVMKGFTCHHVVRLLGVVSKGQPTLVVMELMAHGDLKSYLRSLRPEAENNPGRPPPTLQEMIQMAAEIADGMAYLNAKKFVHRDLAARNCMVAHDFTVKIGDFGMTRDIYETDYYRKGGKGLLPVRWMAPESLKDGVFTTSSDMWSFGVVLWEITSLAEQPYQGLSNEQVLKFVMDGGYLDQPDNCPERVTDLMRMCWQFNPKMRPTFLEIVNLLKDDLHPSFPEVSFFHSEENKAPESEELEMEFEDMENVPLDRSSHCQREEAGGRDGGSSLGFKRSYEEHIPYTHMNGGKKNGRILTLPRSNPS
T2 sequence (P06213 763-1382 partner limits assumed): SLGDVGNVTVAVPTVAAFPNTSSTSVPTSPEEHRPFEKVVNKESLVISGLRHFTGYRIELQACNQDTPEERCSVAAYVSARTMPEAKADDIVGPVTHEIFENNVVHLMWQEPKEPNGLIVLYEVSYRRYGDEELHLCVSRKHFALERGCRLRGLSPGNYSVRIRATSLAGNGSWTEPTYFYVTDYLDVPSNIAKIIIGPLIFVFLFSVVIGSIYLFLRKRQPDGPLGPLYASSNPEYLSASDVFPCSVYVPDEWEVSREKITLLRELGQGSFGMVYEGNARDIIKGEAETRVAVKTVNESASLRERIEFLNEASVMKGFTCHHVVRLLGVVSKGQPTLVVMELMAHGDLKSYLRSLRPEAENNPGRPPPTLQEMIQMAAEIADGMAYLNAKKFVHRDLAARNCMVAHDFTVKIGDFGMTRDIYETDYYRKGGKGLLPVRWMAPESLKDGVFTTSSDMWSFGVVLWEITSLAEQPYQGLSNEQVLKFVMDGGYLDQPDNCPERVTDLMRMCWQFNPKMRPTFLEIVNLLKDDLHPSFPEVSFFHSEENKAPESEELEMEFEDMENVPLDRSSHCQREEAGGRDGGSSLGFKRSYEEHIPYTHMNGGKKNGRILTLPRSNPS
T1 sequence (P06213 28-1370 isoform P06213-2 limits assumed): as the sequence (P06213 28-1370 isoform P06213-2 limits assumed) above
T1 sequence (P06213 763-1382 partner limits assumed): as the sequence (P06213 763-1382 partner limits assumed) above

Compound | Ki (human IR-A (holoIR-A)) [nM] | weaker affinity for hIR-A than BHI (human IR-A (holoIR-A)) [fold] | activity in hIR autophosphorylation assay (in words) [1] | EC50 [1, 4] [nM] | EC50 [1, 5] [nM] | hIRA Phosph EC50 Run 1 ([1]; primary peptide set) [nM] | hIRA Phosph EC50 Run 2 ([1]; primary peptide set) [nM] | hIRA Phosph EC50 Run 3 ([1]; primary peptide set) [nM] | hIRA Phosph IC50 Run 1 ([2]; inhibition of insulin-stimulated phosphorylation, BHI at its EC50, run 1) [nM] | hIRA Phosph IC50 Run 2 ([2]; inhibition of insulin-stimulated phosphorylation, BHI at its EC50, run 2) [nM] | hIRA Phosph IC50 Run 3 ([2]; inhibition of insulin-stimulated phosphorylation, BHI at its EC50, run 3) [nM] | IC50 ([2]; read-out: hIRA Phosph IC50 Mean) [nM] | affinity for hIR (in words) (human IR-A (holoIR-A); comparable to that of BHI) | weaker activity than BHI in an hIR autophosphorylation assay ([1]; relative to biosynthetic human insulin) [fold] | effect on dissociation of pre-bound I125-insulin tracer from native membrane-expressed hIR (in words) [3]
COc1ccc(C[C@H](NC(=O)[C@H](CO)NC(=O)[C@H](CCC(=O)O)NC(=O)[C@H](CO)NC(=O)[C@@H]2CCCN2C(C)=O)C(=O)N[C@@H](Cc2ccc(O)cc2)C(=O)N[C@@H](CCCCN)C(=O)N[C@@H](Cc2c[nH]c3ccccc23)C(=O)N[C@@H](Cc2ccccc2)C(=O)N[C@@H](CCC(=O)O)C(=O)N[C@@H](CCCNC(=N)N)C(=O)N[C@@H](CCC(N)=O)C(=O)N[C@@H](CC(C)C)C(N)=O)cc1 [IM172C13] (Ac-PSESY(Me)YKWFERQL-NH2) | 310 | ~1000 | devoid of detectable activity | > 10000 | > 10000 | >10000 | >10000 | >10000 | – | – | – | – | – | – | –
CC[C@H](C)[C@H](NC(=O)[C@H](CCC(N)=O)NC(=O)[C@H](C)NC(=O)[C@H](Cc1c[nH]c2ccccc12)NC(=O)[C@H](CCC(=O)O)NC(=O)[C@H](CCC(=O)O)NC(=O)[C@H](CCC(=O)O)NC(=O)[C@H](CC(C)C)NC(=O)[C@H](CO)NC(=O)Cc1ccccc1)C(=O)N[C@@H](CCC(=O)O)C(=O)N[C@H]1CSSC[C@@H](C(=O)N2CCC[C@H]2C(=O)N2CCC[C@H]2C(=O)N[C@@H](CO)C(=O)N[C@@H](CCC(=O)O)C(=O)N[C@@H](CO)C(N)=O)NC(=O)[C@H](CCCNC(=N)N)NC(=O)CNC(=O)[C@H](Cc2ccc(O)cc2)NC(=O)[C@H](C(C)C)NC(=O)[C@H](CCC(=O)O)NC1=O [IM172N22] (PhAc-SLEEEWAQIECEVYGRCPPSES-NH2; disulfide 11-17) | 3.08 | ~10 | devoid of detectable activity | > 1000 | > 1000 | >1000 | >1000 | >1000 | 17 | 17 | 17 | 16.9 | – | – | –
CC[C@H](C)[C@H](NC(=O)[C@H](CCC(N)=O)NC(=O)[C@H](C)NC(=O)[C@H](Cc1c[nH]c2ccccc12)NC(=O)[C@H](CCC(=O)O)NC(=O)[C@H](CCC(=O)O)NC(=O)[C@H](CCC(=O)O)NC(=O)[C@H](CC(C)C)NC(=O)[C@H](CO)NC(=O)Cc1ccccc1)C(=O)N[C@@H](CCC(=O)O)C(=O)N[C@H]1CSSC[C@@H](C(=O)N2CCC[C@H]2C(=O)N2CCC[C@H]2C(=O)N[C@@H](CO)C(=O)N[C@@H](CCC(=O)O)C(=O)N[C@@H](CO)C(=O)N[C@@H](Cc2ccc(OC)cc2)C(=O)N[C@@H](Cc2ccc(O)cc2)C(=O)N[C@@H](CCCCN)C(=O)N[C@@H](Cc2c[nH]c3ccccc23)C(=O)N[C@@H](Cc2ccccc2)C(=O)N[C@@H](CCC(=O)O)C(=O)N[C@@H](CCCNC(=N)N)C(=O)N[C@@H](CCC(N)=O)C(=O)N[C@@H](CC(C)C)C(N)=O)NC(=O)[C@H](CCCNC(=N)N)NC(=O)CNC(=O)[C@H](Cc2ccc(O)cc2)NC(=O)[C@H](C(C)C)NC(=O)[C@H](CCC(=O)O)NC1=O [IM172] (PhAc-SLEEEWAQIECEVYGRCPPSESY(Me)YKWFERQL-NH2; disulfide 11-17) | 0.255 | – | – | – | 7.06 | 6.352 | 8.068 | 6.757 | – | – | – | – | sub-nM | ~2.5 | trend similarly, but more weakly
COc1ccc(C[C@H](NC(=O)[C@H](C)NC(=O)[C@H](CCCCN)NC(=O)[C@H](CCCCN)NC(=O)[C@@H]2CCCN2C(C)=O)C(=O)N[C@@H](Cc2ccc(O)cc2)C(=O)N[C@@H](CCCCN)C(=O)N[C@@H](Cc2c[nH]c3ccccc23)C(=O)N[C@@H](Cc2ccccc2)C(=O)N[C@@H](CCC(=O)O)C(=O)N[C@@H](CCCNC(=N)N)C(=O)N[C@@H](CCC(N)=O)C(=O)N[C@@H](CC(C)C)C(=O)N[C@@H](CCCCN)C(N)=O)cc1 [IM459C14] (Ac-PKKAY(Me)YKWFERQLK-NH2) | 215 | – | – | > 1000 | > 1000 | >1000 | >1000 | >1000 | – | – | – | – | – | – | no effect
CC[C@H](C)[C@H](NC(=O)[C@H](CCCCN)NC(=O)C(C)(C)NC(=O)[C@H](Cc1c[nH]c2ccccc12)NC(=O)[C@H](CCC(=O)O)NC(=O)[C@H](CCC(N)=O)NC(=O)[C@H](CCC(=O)O)NC(=O)[C@H](CC(C)C)NC(=O)[C@H](CO)NC(=O)Cc1ccc(CN)cc1)C(=O)N[C@@H](CCC(=O)O)C(=O)N[C@H]1CSSC[C@@H](C(=O)N2CCC[C@H]2C(=O)N2CCC[C@H]2C(=O)N[C@@H](CCCCN)C(=O)N[C@@H](CCCCN)C(N)=O)NC(=O)[C@H](CCCCN)NC(=O)CNC(=O)[C@H](Cc2ccc(O)cc2)NC(=O)[C@H](C(C)C)NC(=O)[C@H](CCC(=O)O)NC1=O [IM459N21] (X1-SLEQEW[Aib]KIECEVYGKCPPKK-NH2; disulfide 11-17) | 10.6 | – | – | > 1000 | > 1000 | >1000 | >1000 | >1000 | – | – | – | – | – | – | effect of IM459 is fully reproduced
CC(C)C[C@H](NC(=O)[C@H](CCC(N)=O)NC(=O)[C@H](CCCNC(=N)N)NC(=O)[C@H](CCC(=O)O)NC(=O)[C@H](Cc1ccccc1)NC(=O)[C@H](Cc1c[nH]c2ccccc12)NC(=O)[C@H](CC(=O)O)NC(=O)[C@H](Cc1ccc(O)cc1)NC(=O)[C@H](Cc1ccccc1)NC(=O)[C@H](CO)NC(=O)[C@H](CCC(=O)O)NC(=O)[C@H](CC(=O)O)NC(=O)[C@H](CC(C)C)NC(=O)[C@H](CO)NC(=O)CNC(=O)[C@H](CO)NC(=O)[C@@H]1CCCN1C(=O)[C@@H]1CSSC[C@H](NC(=O)[C@H](CCC(=O)O)NC(=O)[C@@H](NC(=O)[C@H](CCC(N)=O)NC(=O)[C@H](C)NC(=O)[C@H](Cc2c[nH]c3ccccc23)NC(=O)[C@H](CCC(=O)O)NC(=O)[C@H](CCC(=O)O)NC(=O)[C@H](CCC(=O)O)NC(=O)[C@H](CC(C)C)NC(=O)[C@@H](N)CO)C(C)C)C(=O)N[C@@H](CCC(=O)O)C(=O)N[C@@H](C(C)C)C(=O)N[C@@H](Cc2ccc(O)cc2)C(=O)NCC(=O)N[C@@H](CCCNC(=N)N)C(=O)NCC(=O)N1)C(=O)NCC(=O)O [Peptide S519, reference compound] (H-SLEEEWAQVECEVYGRGCPSGSLDESFYDWFERQLG-OH; disulfide 11-18) | 3.18 | – | – | – | 6.04 | – | – | – | – | – | – | – | – | – | –

From publication PMC9519552, “Activation of the human insulin receptor by non-insulin-related peptides” (Nature Communications, 2022)
